According to patent US12534707B2, “Method for generating cardiac tissue mimetics” (GENOME BIOLOGICS UG, priority 2019, dated 2026):
“Also recorded” adds a separate entry of the source.

Assays:
[1] = system: HUVEC spheroids; assay: Spheroid-based angiogenic sprouting assay; type: cell-based, human; conditions: for endothelial sprouting of HUVEC spheroids with supernatants of CM cultured with PE plus β-blocker: neonatal rat CM 72 hours with 200 μM PE + 1 μM Propranolol or 50 μM Metoprolol, vs PE alone, FIG. 25
Method: After 72 hours, cell culture supernatants were centrifuged (500×g, 5 minutes) to deplete dead cells and stored at −80° C.
Endothelial cell sprouting was studied by in vitro spheroid-based angiogenesis assays. In brief, HUVECs were trypsinized and transferred into a mixture of fully supplemented EBM™ and methylcellulose (80%:20%). […] After 24 hours, spheroids were collected, pelleted (200×g, 3 minuted), resuspended in methylcellulose supplemented with FCS (80%:20%) and embedded in a collagen Type-I gel (Corning; 354236). HUVEC spheroids were then either cultured with fully supplemented EBM (+/−VEGF (50 ng/mL; BioLegend; 583702) or +/−PE (200 μM)), maintenance medium or conditioned cell culture medium.

[2] = system: cardiac tissue mimetics (CTMs); assay: Contractility measurement of CTMs (spontaneous beats per minute; pacing at 1 Hz and 15 V); conditions: 200 μM PE with 1 μM Propranolol or 50 μM Metoprolol, 10 days, vs PE + 0.1% DMSO; FIG. 20
[3] = system: cardiac tissue mimetics (CTMs); assay: CTM vascularisation (GFP-HUVEC sprout length, thickness, branch points); type: cell-based, rat, human; conditions: 200 μM PE with 1 μM Propranolol or 50 μM Metoprolol, 10 days, vs 0.1% DMSO; FIGS. 21, 22
[4] = system: HUVEC; assay: Tube formation assay; type: cell-based, human; conditions: 1 μM Propranolol or 50 μM Metoprolol, 24 hours on Matrigel, vs Ctrl. and 0.1% DMSO; FIGS. 23, 24
Method: Tube formation assay was performed as previously described (J. U. G. Wagner, E. Chavakis, E. M. Rogg, M. Muhly-Reinholz, S. F. Glaser, S. Gunther, D. John, F. Bonini, A. M. Zeiher, L. Schaefer, M. J. Hannocks, R. A. Boon, S. Dimmeler, 2018, Arterioscler Thromb Vasc Biol 38(5), 1170-1177). Briefly, in vitro tube formation was performed with 2×10^4 HUVECs cultured in 100 μL of fully supplemented EBM™ in 96-well plates (Greiner Bio-One GmbH) that had been coated with 100 μL Matrigel® (Corning; 356234).

[5] = system: cardiac tissue mimetics (CTMs); assay: CTM size measurement; conditions: 200 μM PE + 1 μM Propranolol / 50 μM Metoprolol vs PE + 0.1% DMSO; FIG. 39
[6] = system: mature CTMs; assay: Injury assay on mature CTMs (immunofluorescence, SHG, Sirius red); type: cell-based, rat, human
Method: In case of whole mount stainings, CTMs were permeabilized with 0.2% Triton® X-100 in PBS for 1 hour at room temperature followed by blocking with 5% horse serum (Sigma-Aldrich) in PBS for 30 minutes at room temperature. Primary antibodies (see Table 1) were diluted 1:200 in 5% horse serum and incubated over night at 4° C. Before using the secondary antibody (see table below), CTMs were washed three times with PBS containing 1% Tween 20 and 0.002% Triton® X-100 (referred as PBT from here after) for 20 minutes at room temperature. Secondary antibodies (1:500) and DAPI (1:1000; Carl-Roth GmbH & Co. KG) were diluted in 5% horse serum together and incubated for 4 hours at room temperature in the dark. […] Cryo-sections were prepared by embedding fixed spheroids in O.C.T medium (Tissue-Tek), snap-freezing them in liquid nitrogen and cutting them in 10 μm thick sections. Sections were permeabilized and blocked for one hour in 0.1% Triton® X100 (in PBS+BSA). Primary antibody incubated with the sections diluted 1:50-1:100 in 1 mM MgCl2, 1 mM CaCl2, 0.1 mM MnCl2, 1% Triton® X-100 or 0.2% saponin over night at 4° C. The next day, sections were washed trice with 0.1% Triton® X100/PBS or 0.2 saponin (five minutes each) and incubated with the secondary antibody diluted 1:200 in 0.1% Triton® X100 or 0.2% saponin (in PBS) for one hour at room temperature in the dark. Finally, sections were washed again trice with 0.1% Triton® X100/PBS or 0.2% saponin and mounted with mounting medium containing DAPI or Hoechst 33342. Endothelial cells were stained with Isolectin B4.
The second-harmonics generation imaging was performed on an upright spectral multiphoton microscope (Leica TCS SP8 DIVE, non-descanned spectral detectors, objective HC IRAPO L 25×/1.00 W) using 10 μm thick CTM sections. A 1045 nm laser was used for SHG and the signal was detected with a PMT and a detection window from 517 nm to 527 nm. A second detection window was used to record autofluorescence for comparison (552 nm to 565 nm).
Sirius red staining was used to determine collagen deposition and fibrosis in paraffin sections of young versus aged mice hearts. In a first step, the paraffin sections were deparaffinised with xylene (twice 10 minutes) and an ethanol series of 100%, 95%, 80%, 70% and 50% ethanol (5 minutes each step), before washing the sections with water and PBS (5 minutes each step). In a second step, a 0.1% Picrosirius Red solution was prepared by solving 0.5 g Sirius Red (Waldeck GmbH) in 500 mL picric acid (Sigma-Aldrich) that incubated with the deparaffinised sections for 1 hour. After washing two times with acidified water, the sections were dehydrated with 100% ethanol, cleared with xylene and mounted with Pertex (Medite) […]

VEGF was tested, and the “EC spheroid growth / vascular network growth and branching (cumulative sprout length), direct treatment” value [1] was “significantly increased”.

COCCc1ccc(OCC(O)CNC(C)C)cc1 (centres unmarked) [Metoprolol] was tested, and the “frequency of CTM contraction (beats per minute)” value [2] was “significantly decreased; also recorded: reduced”, the “angiogenic sprouting in PE-treated CTMs” value [3] was “significant decrease” and the “direct effect on HUVEC tube formation (accumulated tube length)” value [4] was “no differences; also recorded: could not be detected”. For the same molecule, the “endothelial sprouting of HUVEC spheroids with supernatants of CM cultured with PE plus β-blocker” value [1] was “no significant alterations”.

With CC(C)NCC(O)COc1cccc2ccccc12 (centres unmarked) [Propranolol] the “frequency of CTM contraction (beats per minute)” value [2] was “significantly decreased; also recorded: reduced”, the “angiogenic sprouting in PE-treated CTMs” value [3] was “significant decrease” and the “direct effect on HUVEC tube formation (accumulated tube length)” value [4] was “no differences; also recorded: could not be detected”. For the same molecule, the “PE-induced hypertrophic growth (CTM size, fold change)” value [5] was “diminished” and the “endothelial sprouting of HUVEC spheroids with supernatants of CM cultured with PE plus β-blocker” value [1] was “no significant alterations”.

B1: TGF β2: transforming growth factor β2 (R&D Systems; 302-B2), inducer of endothelial-mesenchymal transition and cardiac fibrosis (protein, UniProt P61812 303-414, looked up)
Transforming growth factor …: ALDAAYCFRNVQDNCCLRPLYIDFKRDLGWKWIHEPKGYNANFCAGACPYLWSSDTQHSRVLSLYNTINPEASASPCCVSQDLEPLTILYYIGKTPKIEQLSNMIVKSCKCS
For B1, the “endothelial-mesenchymal transition (ECs expressing vimentin, SM22α, collagen III)” value ([6]; mature CTMs treated 3 days with TGF β2, FIGS. 32, 40) was “occurs; also recorded: single ECs expressing vimentin were found”, the “cardiac fibroblast activation (vimentin staining)” value ([6]; mature CTMs with or without TGF β2, FIG. 28) was “evidence of cardiac fibroblast activation” and the “CTM vascularization (angiogenic sprouting)” value ([6]; mature CTMs, 200 μM PE + 10 ng/mL TGF β2, 3 days, vs PE, FIGS. 26, 27) was “slightly increased; also recorded: failed to reach significance”. For the same molecule, the “collagen deposition (SHG, Sirius Red staining)” value ([6]; mature CTMs, PE + 10 ng/mL TGF β2, 3 days, FIGS. 29-31) was “induced; also recorded: augments”.
